Entries after “also recorded” stand apart in the source; their conditions may differ.
What was measured:
[1] = system: adipocytes over nerve cells, dermal cells, muscle cells, and endothelial cells; experiment: LIVE/DEAD assay, tissue preference (adipocytes versus other cell types); assay type: cell-based, human; details: for tissue specificity / tissue preference: Example 2, FIGS. 5-8 and table, 2 and 5 hours in FIGS. 6-8
adipocytes [2] = experiment: Histology of injected immediate ex-vivo abdominoplasty tissue; assay type: cell-based, human
Procedure: As the indole group has not been previously used for intralesional fat reduction, a method of obtaining histologic specimens had to be modified.
The tissue model described herein, therefore, was immediate ex-vivo abdominoplasty tissue that had been permitted for use by the surgical patient. Segments of abdominal skin and subcutaneous fat were injected with identified test compounds, plus a negative saline control and three positive controls: 1% deoxycholate, the commercial preparation of Aqualyx®, and the Network Lipolysis PC/DC formula.
Because there was no host; inflammatory changes would not be expected. This study was only performed to assess the immediacy of adipocyte changes, and to determine the method of action of each compound.

[3] = system: fat pad (human fat graft); experiment: Nude mouse study, injection into engrafted human fat pad; assay type: in vivo
Procedure: This example reports exemplary compounds reported in Example 1. A mouse study was performed to test compounds of the embodiments. Eight test compounds were injected. In addition to normal saline and compound diluent (DMSO plus excipients) (negative controls), positive controls included 1% sodium deoxycholate (DC, MasterPharm, Richmond Hill, N.Y.), phosphatidylcholine 25 mg/ml plus deoxycholate 12 mg/ml (PC/DC, PC25/DC 12, MasterPharm, Richmond Hill, N.Y.), and Aqualyx®, a sodium deoxycholate in a lactose carrier (Marllor International, Italy).
Seventy nude mice were chosen for a study of safety and efficacy of injectable lipolytic compounds. Human fat was harvested one hour prior to the injection procedure. 0.5 cc of fat was loaded into micro syringes. Engraftment took place under general anesthesia. Four weeks later, the fat pad size was measured and compounds injected precisely using a 6 mm meso needle in the center and 0.5 cm cephalad and caudad to the midpoint. Mice were sacrificed at one day, one week, two weeks and 4 weeks. […]
Each fat pad was measured and weighed on the analytical balance at the time of sacrifice. […]
Size reduction after compound injection was measured against the measurement taken just previous to injection of compounds. […] Compound dose was calculated based on the average weight of each mouse and was based on the maximum safe dose of PC/DC. […]

[4] = recent reports following clinical trials; cited from earlier work
adipocytes [5] = experiment: LIVE/DEAD calcein/ethidium bromide assay, adipocyte kill rate; assay type: cell-based, human; details: for adipocyte kill rate / aggressiveness: Example 2, FIGS. 5-8 and table; for Adipocyte, averaged ethidium numbers: kill rate (ethidium), all tissue types on the same plate
Procedure: (§1) The time and concentration dependent effects of drug substance on both cell viability and toxicity were evaluated using a two-color fluorescence assay that measures plasma membrane integrity and intracellular enzyme activity. Live cells are determined by the strong fluorescence of calcein AM upon enzymatic conversion. […] The ratio of ethidium to calcein fluorescence is an excellent measure of the relative amount of live and dead cells.
(§2) Initial screening was performed using a variety of cell viability and cytotoxicity assays, including Presto Blue® (Invitrogen, Grand Island, N.Y.), Alamar Blue® (Invitrogen, Grand Island, N.Y.), Cyto-Tox One® (Promega, Madison, Wis.), and Cell Titer Glo® (Promega, Madison, Wis.). […] An MTT terazolium assay was performed, as well as LDH and ATP based assays. […] The LIVE/DEAD® for mammalian cells assay was used. LIVE/DEAD® for mammalian cells assay is a calcein (live read)/ethidium bromide (dead) multiplex assay.
(§3) A sample of DMSO/PBS was a negative control. A sample of Aqualyx® was a positive control. In the table, 24M is phosphatidylcholine 25 mg/ml plus deoxycholate 12 mg/and 25N is C 50/DC24; these were positive controls. The numbers in the table refer to averaged ethidium numbers. The percentages represent the relative kill rate for each cell type when rated against the adipocyte kill rate for that compound. All tissue types were tested on the same plate against adipocytes in order to standardize results.
(§4) Over seventy compounds of the embodiments were tested for adipocytolysis, then for tissue preference. A consistent assay with multiplex information was a calcein/ethidium bromide assay that assesses cell viability and cell death simultaneously. Cell viability was checked using the Countess device. All plates were inoculated with 100 microliters of the appropriate cell types. A 6 well repeat was used to verify results. Cell types used included cultured human adult derived adipocytes, dermal fibroblasts, skeletal muscle cells, and endothelial cells (Cell Applications, Inc., San Diego, Calif.). Human peripheral nerve cells (Innoprot, Spain) were also used.
(§5) Compounds were formulated using a DMSO/PBS excipient. A 10 mg/ml concentration was used. One hundred microliters of test compound was inserted into 6 wells of 5 cell types, placed in adjacent rows. The plates were incubated for 4 hours. Indicator was added to each well, and plates were read at 45 minutes using a fluorescence spectrophotometer (Molecular Devices, Sunnyvale, Calif.).

dermal fibroblasts = assay type: cell-based; details: for Dermis, averaged ethidium numbers: kill rate (ethidium), same plate as adipocytes; for Dermis, relative kill rate rated against the adipocyte kill rate: percentage in brackets
Procedure: as §1, §2, §3, §4, §5

nerve cells = assay type: cell-based; details: for Nerve, averaged ethidium numbers: kill rate (ethidium), same plate as adipocytes; for Nerve, relative kill rate rated against the adipocyte kill rate: percentage in brackets
Procedure: as §1, §2, §3, §4, §5

skeletal muscle cells = experiment: LIVE/DEAD calcein/ethidium bromide assay, muscle cell kill rate; assay type: cell-based, human; details: for Muscle, averaged ethidium numbers: kill rate (ethidium), same plate as adipocytes; for Muscle, relative kill rate rated against the adipocyte kill rate: percentage in brackets
Procedure: as §1, §2, §3, §4, §5

endothelial cells = experiment: LIVE/DEAD calcein/ethidium bromide assay, endothelial cell kill rate; assay type: cell-based, human; details: for Endothelial, averaged ethidium numbers: kill rate (ethidium), same plate as adipocytes; for Endothelial, relative kill rate rated against the adipocyte kill rate: percentage in brackets
Procedure: as §1, §2, §3, §4, §5

| SMILES | tissue specificity / tissue preference [1] | histology finding / mechanism of action (adipocytes [2]; at 4 hours) | adipocyte kill rate / aggressiveness (adipocytes [5]) | Adipocyte, averaged ethidium numbers (adipocytes [5]) | Dermis, averaged ethidium numbers (dermal fibroblasts) | Dermis, relative kill rate rated against the adipocyte kill rate (dermal fibroblasts) | Nerve, averaged ethidium numbers (nerve cells) | Nerve, relative kill rate rated against the adipocyte kill rate (nerve cells) | Muscle, averaged ethidium numbers (skeletal muscle cells) | Muscle, relative kill rate rated against the adipocyte kill rate (skeletal muscle cells) | Endothelial, averaged ethidium numbers (endothelial cells) | Endothelial, relative kill rate rated against the adipocyte kill rate (endothelial cells) | histology finding / mechanism of action (adipocytes [2]; at 12 hours) | also measured |
| --- | --- | --- | --- | --- | --- | --- | --- | --- | --- | --- | --- | --- | --- | --- |
| C[C@H](CCC(=O)[O-])[C@H]1CC[C@H]2[C@@H]3CC[C@@H]4C[C@H](O)CC[C@]4(C)[C@H]3C[C@H](O)[C@]12C.[Na+] [1% deoxycholate, sodium deoxycholate] | indiscriminate | Cell wall lysis | – | – | – | – | – | – | – | – | – | – | – | gross effect on fat pad graft ([3]; four weeks after injection): Visible and measurable fat reduction; gross effect on fat pad graft ([3]; one day after injection): Immediate necrosis; instances of facial nerve palsy [4]: two; numbness with paresthesias, patients treated [4]: up to 40% |
| O=C(O)c1cc2ccccc2[nH]1 [Compound 29, 1H-indole-2-carboxylic acid] | most strongly tissue preferential; also recorded: strongly adipocyte preferential | – | less aggressive; also recorded: equivalent to that of Compounds D and E | 83 | 9 | 11% | 15 | 18% | 14 | 17% | 8.5 | 10% | primarily an apoptotic mechanism | – |
| c1ccc2[nH]ccc2c1 [Compound 33, 1H-indole] | moderate tissue specificity | pyroptotic activity | fairly low adipocyte kill rate | 32 | 17 | 53% | 17 | 53% | 18 | 56% | 18 | 56% | – | ethidium results for dermis, muscle and endothelial cells compared with adipocytes ([1]; 4 time points over 24 hours): less than half toxic; tissue preference ([1]; Example 5, FIG. 12, 10 mg/ml, 4 hours incubation): about 50% |
| Brc1ccc2[nH]ccc2c1 [Compound 38, 5-bromo-1H-indole] | moderate preference | primarily cytolysis | aggressive adipocyte killer | 558 | 148 | 27% | 551 | 99% | 362 | 65% | 289 | 50% | – | toxicity to dermis / dermal fibroblasts (dermal fibroblasts; Example 2, FIGS. 6-8): not nearly as toxic; toxicity to nerve cells (nerve cells; Example 2, FIGS. 6-8): toxic to nerve cells |
| O=C(O)Cc1c[nH]c2ccc(Br)cc12 [Compound 41, 2-(5-bromo-1H-indol-3-yl) acetic acid] | most strongly tissue preferential; also recorded: high tissue preference index | – | moderate; also recorded: strong adipocytolytic capability | 149 | 27 | 18% | 32 | 20% | 40 | 27% | 44 | 30% | Pyroptotic mechanism | – |

Reference: US10653670B2, “Use of indole compounds for fat reduction and skin and soft tissue tightening” (Alevere Medical Corporation, priority 2013, dated 2020)
